Laboratory results published in patent US20240000950A1, “THERAPEUTIC CURE-PRO COMPOUNDS FOR TARGETED DEGRADATION OF BET DOMAIN PROTEINS, AND METHODS OF MAKING AND USING THEM” (CORNELL UNIVERSITY, priority 2020, published 2024).
Entries after “also recorded” stand apart in the source; their conditions may differ.

Tests used:
BRD4 [1] = target: T1, BRD4 (Homo sapiens, UniProt O60885); experiment: Summary of E3 ligase directed degradation of BRD4, estimated from Western Blot or WES (Tables 1-6); assay type: cell-based; parameters: endogenous in cells; host or cells: HeLa, MCF7 or HCT116
Method in brief: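 HeLa, MCF7 or HCT116 cells treated 24 h with compounds in DMSO, lysed in RIPA buffer; BRD4 levels read by Western blot (ECL detection) or capillary WES with HRP detection. Check mark denotes 30% to 70% or higher protein degradation.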

Namalwa cells = experiment: CellTiter-Glo cell viability, Namalwa cells; assay type: cell-based; conditions: 72 h, 10 nM-10 μM, co-dosed 1:1 with CRBN ligand 8047, compared to monomer alone
Description: (§1) All cell lines were purchased from ATCC or DSMZ and grown at 37° C. with 5% C02. Human HeLa cells were cultured in complete growth medium (Dulbecco's modified Eagle's medium (DMEM) supplemented with 10% FBS); MCF7 cells were cultured in complete growth medium (Dulbecco's modified Eagle's medium (DMEM) supplemented with 10% FBS and 0.01 mg/ml human recombinant insulin (Sigma Aldrich); Namalwa and MOLM-13 cells were cultured in complete growth medium (RPMI 1640 medium supplemented with 10% FBS); MV-4-11 were cultured in complete growth medium (Iscove's Modified Dulbecco's medium, supplemented with 10% FBS); HCT116 cells were cultured in complete growth medium (McCoy's 5a Medium supplemented with 10% FBS). For cellular degradation of BRD4 studies, cells were seeded in a 12-well plate at 70-80% confluency, allowed to attach overnight, and incubated with the indicated compounds for the indicated time. […]
CellTiter-Glo® 2.0 Cell Viability Assay (Promega) was carried out following the manufacturer's recommendations. […] After a 72 h incubation, 100 ul of the CellTiter-Glo® substrate was added per well and luminescence was read on a Spectramax M5 (Molecular Devices). […]
Namalwa cells (1×104) were treated for 72 hours with the compounds solubilized in DMSO. […] Cellular viability was determined using the CellTiter-Glo® Luminescent Cell Viability Assay (Promega) described above. […]

BRD4 [2] = target: T1, BRD4; experiment: CURE-PRO-mediated BRD4 degradation in HeLa cells, Western blot; assay type: cell-based; parameters: endogenous in cells; host or cells: HeLa; conditions: 24 h
Description: (§2) All cell lines were purchased from ATCC or DSMZ and grown at 37° C. with 5% C02. Human HeLa cells were cultured in complete growth medium (Dulbecco's modified Eagle's medium (DMEM) supplemented with 10% FBS); MCF7 cells were cultured in complete growth medium (Dulbecco's modified Eagle's medium (DMEM) supplemented with 10% FBS and 0.01 mg/ml human recombinant insulin (Sigma Aldrich); Namalwa and MOLM-13 cells were cultured in complete growth medium (RPMI 1640 medium supplemented with 10% FBS); MV-4-11 were cultured in complete growth medium (Iscove's Modified Dulbecco's medium, supplemented with 10% FBS); HCT116 cells were cultured in complete growth medium (McCoy's 5a Medium supplemented with 10% FBS). For cellular degradation of BRD4 studies, cells were seeded in a 12-well plate at 70-80% confluency, allowed to attach overnight, and incubated with the indicated compounds for the indicated time. When indicated, a 15-minute pretreatment with 10 μM pomalidomide, 10 μM VHL298, 10 μM Nutlin3a, 1 μM MG-132 or 1 μM Carfilzomib was performed before the addition of CURE-PROs. For washout studies, after CURE-PRO treatment, media was aspirated and incubated with complete medium for the indicated time before lysis.
(§3) Anti-BRD4 (13440, 1:1,000 dilution for Western Blot and 1:25 dilution for ProteinSimple); Anti-BRD2 (5848 1:1,000 dilution for Western Blot and 1:25 dilution for ProteinSimple); β-Actin (3700, 1:2,000 dilution for Western Blot), β-Actin (4970, 1:50 dilution for ProteinSimple) anti-mouse IgG-HRP, and anti-rabbit IgG-HRP antibodies were purchased Cell Signaling Technology. Anti-GAPDH (600-401-A33, 1:100 dilution for ProteinSimple) was purchased from Rockland Immunochemicals, Inc. Anti-BRD3 (sc-81202, 1:200 dilution for Western Blot) was purchased from Santa Cruz Biotechnology.
HeLa, MCF7, or HCT116 cells (2.5-3×10^6) were treated for 24 hours with the indicated compounds solubilized in DMSO. The cells were washed in ice-cold PBS and were then lysed in RIPA lysis buffer (150 mM NaCl, 5 mM EDTA, 1% NP-40, 0.5% sodium deoxycholate, 0.1% SDS, 50 mM Tris, pH 8.0) with Roche protease inhibitor complete cocktail and phosphatase inhibitors (10 mM sodium fluoride, 10 mM sodium pyrophosphate, 1 mM sodium orthovanadate and 20 mM β-glycerophosphate). The total protein concentrations were determined by Bradford Protein Assay and 10-20 μg of protein was loaded onto 4-15% Tris-Glycine gradient gels (Biorad). After standard gel electrophoresis, the separated proteins were transferred to PVDF membrane by wet transfer. The immunoblots were then blocked for 1 hour in 5% skim milk in TBST or 5% BSA in TBST, according to manufacturer's instructions, before an overnight incubation at 4° C. with indicated antibodies and membranes. Membranes were then incubated with the appropriate horseradish peroxidase-conjugated secondary antibodies (1:5,000 dilution) for 1 h at room temperature and the bands were visualized using the Clarity Max Western ECL Substrate (Biorad) and the ChemiDoc Imaging System (Biorad). Signal was detected with ECL Western Blotting Substrate (Pierce) and X-ray film processed with a Konica SRX-101 X-ray film processor or captured by Bio-Rad's Chemidoc Imaging system.
HeLa cells (2.5×10^6) were treated for 24 hours with the sample compounds solubilized in DMSO. Compounds were added at 1-10 μM each. Standardized protein samples were electrophoresed and imaged as described in the immunoblotting description above. FIGS. 6-18 depicts the CURE-PRO-mediated BRD4 degradation for BRD monomers (JQ1 derivatives comprising of catechol linkers), and CRBN ligands, 8048 and 8049 (pomalidomide derivatives comprising boronic acid linkers) combined in a 1:1 ratio.
HeLa cells (2.5×10^6) were treated for 24 hours with the compounds solubilized in DMSO. The compounds were added at 10 μM each. Standardized protein samples were electrophoresed and imaged as described in the immunoblotting section above. […]

BRD4 [3] = target: T1, BRD4; experiment: CURE-PRO-mediated BRD4 degradation in HeLa cells, WES capillary electrophoresis (ProteinSimple); assay type: cell-based; parameters: endogenous in cells; host or cells: HeLa; conditions: 4-24 h, 10 μM each, co-dosed with CRBN ligand 8047, washed after 4 h
Description: as §2, §3
WES Simple analysis was performed on WES system (ProteinSimple-Biotechne) according to the manufacturer's instructions. Total protein concentrations of cell lysates were determined by the Pierce BCA kit (Thermo Fisher). 3 μL of 0.3 μg/uL of the protein lysate was loaded onto a 12- to 230-kDa WES assay plate (ProteinSimple) where 300 nL sample was withdrawn through a capillary, subjected to electrophoretic separation of proteins by size, and followed by the simultaneous, HRP-based detection of proteins using the Anti-Rabbit Detection Module (Proteinsimple: #DM-001). The electropherograms were checked then the automatic peak detection was manually corrected if it was required.
HeLa cells (2.5×10^6) were treated for 4-24 hours with the compounds solubilized in DMSO. After 4 hours, indicated points were washed and cells were left in full growth media. Compounds were added at 10 μM each. […]

MV-4-11 cells = experiment: CellTiter-Glo cell viability, MV-4-11 cells; assay type: cell-based; conditions: 1 nM-100 μM, cotreated 1:1 with CRBN ligand 8049
Description: as §2
CellTiter-Glo® 2.0 Cell Viability Assay (Promega) was carried out following the manufacturer's recommendations. Cells were seeded at a density of 1000 cells/well in a white 96 well plates (Corning, #3917) in a total volume of 100 μl with respective monomers, combinations of BRD ligands together with E3 ligase ligands or vehicle control treatment. After a 72 h incubation, 100 ul of the CellTiter-Glo® substrate was added per well and luminescence was read on a Spectramax M5 (Molecular Devices). Dose-response curves were generated using Graphpad Prism software.
MV-4-11 cells (5×104) were treated for 24 hours with the sample compounds solubilized in DMSO. The compounds were added at 1 nM-100 μM each. Cellular viability was determined using the CellTiter-Glo® Luminescent Cell Viability Assay (Promega) described above. FIGS. 19-22 depict the CURE-PRO-mediated loss of cellular viability for BRD monomers (JQ1 derivatives comprising of catechol linkers), and CRBN ligand, 8049 (pomalidomide derivatives comprising boronic acid linkers) combined in a 1:1 ratio.
MV-4-11 cells (1×104) were treated for 72 hours with the compounds solubilized in DMSO. Compounds were added at 10 nM-100 μM each. Cellular viability was determined using the CellTiter-Glo® Luminescent Cell Viability Assay (Promega) described above. FIGS. 47-54 depict the CURE-PRO-mediated loss of cellular viability for BRD monomers (JQ1 derivatives comprising of boronic acid linkers), and CRBN ligands, 8046, 8047, and 8066 (pomalidomide derivatives comprising diol linkers) combined in a 1:1 ratio.

SLC19A1 = experiment: Suppression of the c-MYC downstream target gene SLC19A1, RT-PCR in HeLa cells; assay type: cell-based, Human; conditions: 24 h, 10 μM each
Description: The suppression of the expression of the downstream c-MYC target, SLC19A1, was measured by RT-PCR using Power SYBR® Green Cells-to-Ct™ Kit (Life Technologies). Adherent cells were plated on 96 well plates at 5,000 cells per well were treated for 24 h with monomer compounds and compounds capable of reversible interactions (1 nM-100 μM). Cells were subsequently washed in ice-cold PBS processed according to the manufacturer's instructions. Quantitative real-time PCR was performed using a ViiA™ 7 Real-time PCR System (Applied Biosystems, Foster City, CA, USA). GAPDH and ACTB served as internal controls. The primers used were (5′-3′): GAPDH-F: AGCCACATCGCTCAGACAC (SEQ ID NO:9), GAPDH-R: GCCCAATACGACCAAATCC (SEQ ID NO:10), ACTB-F: CCAACCGCGAGAAGATGA (SEQ ID NO:11), ACTB-R: […] (SEQ ID NO:12), SLC19A1-F: […] (SEQ ID NO:13), SLC19A1-R: […] (SEQ ID NO:14).
HeLa cells (1×104) were treated for 24 hours in 96 well plates with the compounds solubilized in DMSO. Compounds were added at 10 μM each and RNA expression measured by the Cells-to Ct method described above (Thermofisher).

BRD4 [4] = target: T1, BRD4; experiment: BRD protein family degradation in HCT116 cells with MDM2 ligands, Western blot: BRD4; assay type: cell-based; parameters: endogenous in cells; host or cells: HeLa, MCF7 or HCT116; conditions: 24 h, with MDM2 ligands 8310 / 8312
Description: as §1
HeLa, MCF7, or HCT116 cells (2.5-3×10^6) were treated for 24 hours with the indicated compounds solubilized in DMSO. […] The total protein concentrations were determined by Bradford Protein Assay and 10-20 μg of protein was loaded onto 4-15% Tris-Glycine gradient gels (Biorad). […] Signal was detected with ECL Western Blotting Substrate (Pierce) and X-ray film processed with a Konica SRX-101 X-ray film processor or captured by Bio-Rad's Chemidoc Imaging system. […]

Row | Structure (SMILES) | Degradation of BRD4, combination with CRBN ligand [drawing 421] (BRD4 [1]; Table 1, CRBN ligand drawn as drawing 421 (by the text apparently 8047)) | loss of cell viability (CellTiter-Glo) (Namalwa cells) | BRD4 degradation with pomalidomide and the BRD ligand (no 8047) (BRD4 [2]; 10 μM) | BRD4 degradation after preincubation with pomalidomide (BRD4 [2]; 10 μM, 1:1 with CRBN ligand 8047, pomalidomide preincubated 15 min at equimolar concentration) | BRD4 degradation (BRD4 [2]; BRD ligand (monomer) alone) | BRD4 degradation, time dependence and washout (BRD4 [3]) | Degradation of BRD4, combination with MDM2 ligand [drawing 463] (BRD4 [1]; Table 5, aryl-boronic acid-containing MDM2 ligand drawn as drawing 463 (apparently 8310)) | Degradation of BRD4, combination with MDM2 ligand [drawing 464] (BRD4 [1]; Table 5, aryl-boronic acid-containing MDM2 ligand drawn as drawing 464 (apparently 8312)) | toxicity / loss of cellular viability (CellTiter-Glo) (MV-4-11 cells) | suppression of SLC19A1 expression (SLC19A1; with MDM2 ligand 8310) | suppression of SLC19A1 expression (SLC19A1; with MDM2 ligand 8312) | selectivity of degradation within the BRD protein family (BRD4 [4])
1 | CCNC(=O)C[C@@H]1N=C(c2ccc(Cl)cc2)c2cc(-c3cccc(B(O)O)c3)ccc2-n2c(C)nnc21 [BRD-E72, (3-((4S)-6-(4-chlorophenyl)-4-(2-(ethylamino)-2-oxoethyl)-1-methyl-4H-benzo[f][1,2,4]triazolo[4,3-a][1,4]diazepin-8-yl)phenyl)boronic acid] | ✓ (A black check mark indicates efficacy of 30% to 70% or higher protein degradation) | the dose-response curves shifted towards the left; also recorded: marked loss in cell viability | failed to induce BRD4 degradation | inhibition of CURE-PRO-mediated BRD4 degradation | no change in expression is observed | marked BRD4 degradation after 4 h with sustained degradation for up to 8 h after drugs are washed out | – | – | – | – | – | –
2 | CCNC(=O)C[C@@H]1N=C(c2ccc(Cl)cc2)c2cc(OCCNC(=O)c3cccc(O)c3O)ccc2-n2c(C)nnc21 [BRD-N25] | – | – | – | – | – | – | ✓ (A black check mark indicates efficacy of 30% to 70% or higher protein degradation) | ✓ (A black check mark indicates efficacy of 30% to 70% or higher protein degradation) | a concentration-dependent loss in cellular viability was observed; also recorded: increased toxicity | a rightward shift in the curve and an increase in the Ct values | a rightward shift in the curve and an increase in the Ct values | some selectivity for BRD3 and BRD4 over BRD2 for 8310
